Consider 19 compounds from patent publication US8574563B2 (Bristol-Myers Squibb Company, priority 2006, dated 2013).

The assay concerns HCV 1b-377-neo replicon cells. Kind of assay: HCV replicon assay, HCV 1b-377-neo replicon cells (1b FRET). The format is cell-based, Hepatitis C virus genotype 1b. The conditions noted are these: HCV 1b-377-neo replicon cells, HCV 1b genotype, read-out: EC50 range against HCV 1b (Table 2, Range). Put shortly:
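Compounds were tested in genotype 1b subgenomic replicon cells carrying a neomycin marker, alongside a matched replicon line with an NS5A Y2065H substitution that confers resistance to a reference NS5A inhibitor.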

Read-outs that look alike come from different tables or passages of the source.

As a reminder, the EC50 is the concentration needed to bring the measured effect to its halfway point. In the case of `COC(=O)N[C@@H](C(=O)N1CCC[C@H]1c1ncc(-c2ccc(-c3ccc(-c4cnc([C@@H]5CCCN5C(=O)[C@@H]5C[C@@H](F)CN5)[nH]4)cc3)cc2)[nH]1)c1ccccc1` [Example 82, methyl ((1R)-2-((2S)-2-(5-(4′-(2-((2S)-1-((4R)-4-fluoro-L-prolyl)-2-pyrrolidinyl)-1H-imidazol-5-yl)-4-biphenylyl)-1H-imidazol-2-yl)-1-pyrrolidinyl)-2-oxo-1-phenylethyl)carbamate], the EC50 (Hepatitis C virus) is 0.001 to 0.999 nM. Consider `COC(=O)N[C@@H](C(=O)N1CCC[C@H]1c1ncc(-c2ccc(-c3ccc(-c4cnc([C@@H]5CCCN5C(=O)[C@@H]5C[C@@H]6C[C@@H]6N5)[nH]4)cc3)cc2)[nH]1)c1ccccc1` [Example 83, methyl ((1R)-2-((2)S-2-(5-(4′ (2-((2S)-1-((1S,3S,5S)-2-azabicyclo[3.1.0]hex-3-ylcarbonyl)-2-pyrrolidinyl)-1H-imidazol-5-yl)-4-biphenylyl)-1H-imidazol-2-yl)-1-pyrrolidinyl)-2-oxo-1-phenylethyl)carbamate], for which the EC50 was 0.001 to 0.999 nM.

Consider `COC(=O)N[C@@H](C(=O)N1CCC[C@H]1c1ncc(-c2ccc(-c3ccc(-c4cnc([C@@H]5CCCN5C(=O)[C@H](C)N)[nH]4)cc3)cc2)[nH]1)c1ccccc1` [Example 84, methyl ((1R)-2-((2S)-2-(5-(4′-(2-((2S)-1-L-alanyl-2-pyrrolidinyl)-1H-imidazol-5-yl)-4-biphenylyl)-1H-imidazol-2-yl)-1-pyrrolidinyl)-2-oxo-1-phenylethyl)carbamate], for which the EC50 (Hepatitis C virus) is 0.001 to 0.999 nM. `COC(=O)N[C@@H](C(=O)N1CCC[C@H]1c1ncc(-c2ccc(-c3ccc(-c4cnc([C@@H]5CCCN5C(=O)[C@@H](c5ccccc5)N5CCCCC5)[nH]4)cc3)cc2)[nH]1)c1ccccc1` [Example 84-1, methyl ((1R)-2-oxo-1-phenyl-2-((2S)-2-(5-(4′-(2-((2S)-1-((2R)-2-phenyl-2-(1-piperidinyl)acetyl)-2-pyrrolidinyl)-1H-imidazol-5-yl)-4-biphenylyl)-1H-imidazol-2-yl)-1-pyrrolidinyl)ethyl)carbamate]: the EC50 (Hepatitis C virus) lay in the range of 0.001 to 0.999 nM. Consider `COC(=O)N[C@@H](C(=O)N1CCC[C@H]1c1ncc(-c2ccc(-c3ccc(-c4cnc([C@@H]5CCCN5C(=O)[C@@](C)(O)c5ccccc5F)[nH]4)cc3)cc2)[nH]1)c1ccccc1` [Example 84-2, methyl ((1R)-2-((2S)-2-(5-(4′-(2-((2S)-1-((2S)-2-(2-fluorophenyl)-2-hydroxypropanoyl)-2-pyrrolidinyl)-1H-imidazol-5-yl)-4-biphenylyl)-1H-imidazol-2-yl)-1-pyrrolidinyl)-2-oxo-1-phenylethyl)carbamate], for which, for the setting “Hepatitis C virus”, the EC50 is 0.001 to 0.999 nM. As for `COC(=O)N[C@@H](C(=O)N1CCC[C@H]1c1ncc(-c2ccc(-c3ccc(-c4cnc([C@@H]5CCCN5C(=O)[C@H]5CCC(=O)N5)[nH]4)cc3)cc2)[nH]1)c1ccccc1` [Example 84-3], the EC50 was 0.001 to 0.999 nM. For `COC(=O)N[C@@H](C(=O)N1CCC[C@H]1c1ncc(-c2ccc(-c3ccc(-c4cnc([C@@H]5CCCN5C(=O)[C@@H](c5ccccc5)N5CCC(C)(O)CC5)[nH]4)cc3)cc2)[nH]1)c1ccccc1` [Example 84-4, methyl ((1R)-2-((2S)-2-(5-(4′-(2-((2S)-1-((2R)-2-(4-hydroxy-4-methyl-1-piperidinyl)-2-phenylacetyl)-2-pyrrolidinyl)-1H-imidazol-5-yl)-4-biphenylyl)-1H-imidazol-2-yl)-1-pyrrolidinyl)-2-oxo-1-phenylethyl)carbamate], the EC50 (Hepatitis C virus) was 0.001 to 0.999 nM.

As for `COC(=O)N[C@@H](C(=O)N1CCC[C@H]1c1ncc(-c2ccc(-c3ccc(-c4cnc([C@@H]5CCCN5C(=O)CNC(=O)c5ccccc5)[nH]4)cc3)cc2)[nH]1)c1ccccc1` [Example 84-7, methyl ((1R)-2-((2S)-2-(5-(4′-(2-((2S)-1-(N-benzoylglycyl)-2-pyrrolidinyl)-1H-imidazol-5-yl)-4-biphenylyl)-1H-imidazol-2-yl)-1-pyrrolidinyl)-2-oxo-1-phenylethyl)carbamate], the EC50 (Hepatitis C virus) fell in the range of 1 to 99 nM. In the case of `COC(=O)N[C@@H](C(=O)N1CCC[C@H]1c1ncc(-c2ccc(-c3ccc(-c4cnc([C@@H]5CCCN5C(=O)c5snnc5-c5ccccc5)[nH]4)cc3)cc2)[nH]1)c1ccccc1` [Example 84-10, methyl ((1R)-2-oxo-1-phenyl-2-((2S)-2-(5-(4′-(2-((2S)-1-((4-phenyl-1,2,3-thiadiazol-5-yl)carbonyl)-2-pyrrolidinyl)-1H-imidazol-5-yl)-4-biphenylyl)-1H-imidazol-2-yl)-1-pyrrolidinyl)ethyl)carbamate], the EC50 (Hepatitis C virus) lay in the range of 1 to 99 nM. Same read-out and setting: with `COC(=O)N[C@@H](C(=O)N1CCC[C@H]1c1ncc(-c2ccc(-c3ccc(-c4cnc([C@@H]5CCCN5C(=O)C5(C)CCN(C(=O)OC(C)(C)C)CC5)[nH]4)cc3)cc2)[nH]1)c1ccccc1` [Example 84-12, tert-butyl 4-(((2S)-2-(5-(4′-(2-((2S)-1-((2R)-2-((methoxycarbonyl)amino)-2-phenylacetyl)-2-pyrrolidinyl)-1H-imidazol-5-yl)-4-biphenylyl)-1H-imidazol-2-yl)-1-pyrrolidinyl)carbonyl)-4-methyl-1-piperidinecarboxylate] the figure was 0.001 to 0.999 nM; with `COC(=O)N[C@@H](C(=O)N1CCC[C@H]1c1ncc(-c2ccc(-c3ccc(-c4cnc([C@@H]5CCCN5C(=O)Cc5cccc(O)c5)[nH]4)cc3)cc2)[nH]1)c1ccccc1` [Example 84-14, methyl ((1R)-2-((2S)-2-(5-(4′-(2-((2S)-1-((3-hydroxyphenyl)acetyl)-2-pyrrolidinyl)-1H-imidazol-5-yl)-4-biphenylyl)-1H-imidazol-2-yl)-1-pyrrolidinyl)-2-oxo-1-phenylethyl)carbamate], 1 to 99 nM. Consider `COC(=O)N[C@@H](C(=O)N1CCC[C@H]1c1ncc(-c2ccc(-c3ccc(-c4cnc([C@@H]5CCCN5C(=O)CCN(C)C)[nH]4)cc3)cc2)[nH]1)c1ccccc1` [Example 84-15, methyl ((1R)-2-((2S)-2-(5-(4′-(2-((2S)-1-(N,N-dimethyl-beta-alanyl)-2-pyrrolidinyl)-1H-imidazol-5-yl)-4-biphenylyl)-1H-imidazol-2-yl)-1-pyrrolidinyl)-2-oxo-1-phenylethyl)carbamate], for which, for the setting “Hepatitis C virus”, the EC50 lay within 1 to 99 nM. Still for that read-out and setting: for `COC(=O)N[C@@H](C(=O)N1CCC[C@H]1c1ncc(-c2ccc(-c3ccc(-c4cnc([C@@H]5CCCN5C(=O)[C@@H]5CCN(Cc6ccccc6)C5)[nH]4)cc3)cc2)[nH]1)c1ccccc1` [Example 84-17, methyl ((1R)-2-((2S)-2-(5-(4′-(2-((2S)-1-(((3R)-1-benzyl-3-pyrrolidinyl)carbonyl)-2-pyrrolidinyl)-1H-imidazol-5-yl)-4-biphenylyl)-1H-imidazol-2-yl)-1-pyrrolidinyl)-2-oxo-1-phenylethyl)carbamate] the value was 0.001 to 0.999 nM; for `COC(=O)N[C@@H](C(=O)N1CCC[C@H]1c1ncc(-c2ccc(-c3ccc(-c4cnc([C@@H]5CCCN5C(=O)C[C@@H]5CCCN5C(=O)OC(C)(C)C)[nH]4)cc3)cc2)[nH]1)c1ccccc1` [Example 84-18, tert-butyl (2S)-2-(2-((2S)-2-(5-(4′-(2-((2S)-1-((2R)-2-((methoxycarbonyl)amino)-2-phenylacetyl)-2-pyrrolidinyl)-1H-imidazol-5-yl)-4-biphenylyl)-1H-imidazol-2-yl)-1-pyrrolidinyl)-2-oxoethyl)-1-pyrrolidinecarboxylate], 1 to 99 nM. On the same count and under the same terms, with `COC(=O)N[C@@H](C(=O)N1CCC[C@H]1c1ncc(-c2ccc(-c3ccc(-c4cnc([C@@H]5CCCN5C(=O)Cc5cc(C)[nH]n5)[nH]4)cc3)cc2)[nH]1)c1ccccc1` [Example 84-19, methyl ((1R)-2-((2S)-2-(5-(4′-(2-((2S)-1-((5-methyl-1H-pyrazol-3-yl)acetyl)-2-pyrrolidinyl)-1H-imidazol-5-yl)-4-biphenylyl)-1H-imidazol-2-yl)-1-pyrrolidinyl)-2-oxo-1-phenylethyl)carbamate] the figure was 1 to 99 nM; with `COC(=O)N[C@@H](C(=O)N1CCC[C@H]1c1ncc(-c2ccc(-c3ccc(-c4cnc([C@@H]5CCCN5C(=O)[C@@H]5Cc6ccc(O)cc6CN5)[nH]4)cc3)cc2)[nH]1)c1ccccc1` [Example 84-20, methyl ((1R)-2-((2S)-2-(5-(4′-(2-((2S)-1-(((3S)-7-hydroxy-1,2,3,4-tetrahydro-3-isoquinolinyl)carbonyl)-2-pyrrolidinyl)-1H-imidazol-5-yl)-4-biphenylyl)-1H-imidazol-2-yl)-1-pyrrolidinyl)-2-oxo-1-phenylethyl)carbamate], 1 to 99 nM; with `COC(=O)N[C@@H](C(=O)N1CCC[C@H]1c1ncc(-c2ccc(-c3ccc(-c4cnc([C@@H]5CCCN5C(=O)CCN5CCCCC5)[nH]4)cc3)cc2)[nH]1)c1ccccc1` [Example 84-24, methyl ((1R)-2-oxo-1-phenyl-2-((2S)-2-(5-(4′-(2-((2S)-1-(3-(1-piperidinyl)propanoyl)-2-pyrrolidinyl)-1H-imidazol-5-yl)-4-biphenylyl)-1H-imidazol-2-yl)-1-pyrrolidinyl)ethyl)carbamate], 0.001 to 0.999 nM. Consider `COC(=O)N[C@@H](C(=O)N1CCC[C@H]1c1ncc(-c2ccc(-c3ccc(-c4cnc([C@@H]5CCCN5C(=O)COc5ccccc5OC)[nH]4)cc3)cc2)[nH]1)c1ccccc1` [Example 84-26, methyl ((1R)-2-((2S)-2-(5-(4′-(2-((2S)-1-((2-methoxyphenoxy)acetyl)-2-pyrrolidinyl)-1H-imidazol-5-yl)-4-biphenylyl)-1H-imidazol-2-yl)-1-pyrrolidinyl)-2-oxo-1-phenylethyl)carbamate], for which, under “Hepatitis C virus”, the EC50 was in the range of 0.001 to 0.999 nM. Take `COC(=O)N[C@@H](C(=O)N1CCC[C@H]1c1ncc(-c2ccc(-c3ccc(-c4cnc([C@@H]5CCCN5C(=O)C5CN(C(=O)OC(C)(C)C)C5)[nH]4)cc3)cc2)[nH]1)c1ccccc1` [Example 84-27, tert-butyl 3-(((2S)-2-(5-(4′-(2-((2S)-1-((2R)-2-((methoxycarbonyl)amino)-2-phenylacetyl)-2-pyrrolidinyl)-1H-imidazol-5-yl)-4-biphenylyl)-1H-imidazol-2-yl)-1-pyrrolidinyl)carbonyl)-1-azetidinecarboxylate]: where the note is “Hepatitis C virus”, the concentration for a half-maximal effect (EC50) fell in the range of 0.001 to 0.999 nM.
